Assay results published in ChEMBL document CHEMBL5696439 (Cancer Res, 2010).
The source made the active and inactive calls. The calls are words filed in the database; no cut-off is given here.

How the values were obtained:
[1] = target: Tyrosine-protein kinase Yes (Homo sapiens) (UniProt P07947); assay: Inhibition of recombinant human full length GST-tagged YES1 expressed in insect cells at 2 uM using Ser/Thr 07 as substrate measured after 1 hr by Z'-LYTE assay relative to control; details: Insect cell
[2] = target: Serine/threonine-protein kinase MARK2 (Homo sapiens) (UniProt Q7KZI7); assay: Inhibition of recombinant human full length GST-tagged MARK2 expressed in insect cells at 2 uM using Ser/Thr 21 as substrate measured after 1 hr by Z'-LYTE assay relative to control; details: Insect cell
[3] = system: A498; assay: Antiproliferative activity against human A498 cells assessed as cell growth inhibition incubated for 24 hrs by MTS assay; assay type: functional, cell-based; details: A498, 24 h
[4] = target: Tyrosine-protein kinase FRK (Homo sapiens) (UniProt P42685); assay: Inhibition of recombinant human full-length GST-tagged FRK expressed in baculovirus expression system at 2 uM using Tyr 01 as substrate measured after 1 hr by Z'-LYTE assay relative to control
[5] = target: Tyrosine-protein kinase Fes/Fps (Homo sapiens) (UniProt P07332); assay: Inhibition of recombinant human full-length His-tagged FES expressed in baculovirus expression system at 2 uM using Tyr 01 as substrate measured after 1 hr by Z'-LYTE assay relative to control
[6] = Inhibition of recombinant human full-length His-tagged CDK2/cyclin A expressed in insect cells at 2 uM using Ser/Thr 12 as substrate measured after 1 hr by Z'-LYTE assay relative to control; details: Insect cell, condition cancer
[7] = target: High affinity nerve growth factor receptor (Homo sapiens) (UniProt P04629); assay: Inhibition of recombinant human His-tagged NTRK1 (441-796 residues) expressed in insect cells at 2 uM using Tyr 01 as substrate measured after 1 hr by Z'-LYTE assay relative to control; details: Insect cell
[8] = target: Mitogen-activated protein kinase 10 (Homo sapiens) (UniProt P53779); assay: Inhibition of recombinant human full length GST-tagged MAPK10 expressed in insect cells at 2 uM using Ser/Thr 04 as substrate measured after 1 hr by Z'-LYTE assay relative to control; details: Insect cell
[9] = system: MDA-MB-361; assay: Antiproliferative activity against human MDA-MB-361 cells assessed as cell growth inhibition at 10 micromol/L incubated for 3 days by MTS assay relative to control; assay type: functional; details: MDA-MB-361, 72 h, dose 10 µmol/L, time 3 day
[10] = target: Phosphorylase b kinase gamma catalytic chain, liver/testis isoform (Homo sapiens) (UniProt P15735); assay: Inhibition of recombinant human full length GST-tagged PHKG2 expressed in insect cells at 2 uM using Ser/Thr 07 as substrate measured after 1 hr by Z'-LYTE assay relative to control; details: Insect cell
[11] = system: HT-29; assay: Antitumor activity against human HT-29 cells xenografted in female nude mouse model assessed as suppression in P-AKT at S473 level at 50 mg/kg, iv administered once a week and measured at least 8 hrs by immunoblot analysis; assay type: functional, organism-based
[12] = target: T1, mTORC2 (Homo sapiens) (UniProt P42345+Q6R327+Q9BVC4+Q9BPZ7); details: PC3MM2, dose 0.1-1 µM, time 6.0 hrs
[13] = system: MDA-MB-361; assay: Antitumor activity against human MDA-MB-361 cells xenografted in female nude mouse model assessed as suppression in P-AKT at S473 level at 50 mg/kg, iv administered once a week and measured at least 8 hrs by immunoblot analysis; assay type: functional, organism-based
[14] = target: T1, mTORC2 (Homo sapiens); details: U-87 MG, dose 0.025-2 µmol/L, time 6.0 hrs
[15] = target: SRSF protein kinase 1 (Homo sapiens) (UniProt Q96SB4); assay: Inhibition of recombinant human full length His-tagged SRPK1 expressed in insect cells at 2 uM using Ser/Thr 18 as substrate measured after 1 hr by Z'-LYTE assay relative to control; details: Insect cell
[16] = target: Serine/threonine-protein kinase Sgk3 (Homo sapiens) (UniProt Q96BR1); assay: Inhibition of recombinant human GST-tagged SGK3 (87-496 residues) expressed in insect cells at 2 uM using Ser/Thr 06 as substrate measured after 1 hr by Z'-LYTE assay relative to control; details: Insect cell
[17] = target: Tyrosine-protein kinase ABL1 (Homo sapiens) (UniProt P00519); assay: Inhibition of recombinant human full-length His-tagged ABL1 expressed in insect cells at 2 uM using Tyr 02 as substrate measured after 1 hr by Z'-LYTE assay relative to control; details: Insect cell
[18] = system: HEK293; assay: Antiproliferative activity against HEK293 cells assessed as reduction in polysomes at 0.5 micromol/L incubated for 16 hrs; assay type: functional, Homo sapiens; details: dose 0.5 µmol/L
[19] = target: Glycogen synthase kinase-3 alpha (Homo sapiens) (UniProt P49840); assay: Inhibition of recombinant human full-length GST-tagged GSK3A expressed in insect cells at 2 uM using Ser/Thr 09 as substrate measured after 1 hr by Z'-LYTE assay relative to control; details: Insect cell
[20] = target: Casein kinase I isoform gamma-1 (Homo sapiens) (UniProt Q9HCP0); assay: Inhibition of recombinant human full-length GST-tagged CSNK1G1 expressed in insect cells at 2 uM using Ser/Thr 05 as substrate measured after 1 hr by Z'-LYTE assay relative to control; details: Insect cell
[21] = target: Protein kinase C gamma type (Homo sapiens) (UniProt P05129); assay: Inhibition of recombinant human full length GST-tagged PRKCG expressed in insect cells at 2 uM using Ser/Thr 07 as substrate measured after 1 hr by Z'-LYTE assay relative to control; details: Insect cell
[22] = target: Serine/threonine-protein kinase SMG1 (Homo sapiens, UniProt Q96Q15); assay: Inhibition of human SMG1 using glutathione S-transferase-p53 as substrate by DELFIA
[23] = system: MDA-MB-361; assay: Induction of apoptosis in PI3K/mTOR hyperactive human MDA-MB-361 cells assessed as massive cell death at 0.001 to 100 micromol/L incubated for 48 hrs by FACS analysis; assay type: functional, cell-based; details: dose 0.001-100 µmol/L
[24] = target: Casein kinase I isoform delta (Homo sapiens) (UniProt P48730); assay: Inhibition of recombinant human full-length GST-tagged CSNK1D expressed in insect cells at 2 uM using Ser/Thr 11 as substrate measured after 1 hr by Z'-LYTE assay relative to control; details: Insect cell
[25] = system: A549; assay: Induction of apoptosis in human A549 cells assessed as increase in G1 phase at 1 micromol/L incubated for 24 hrs by FACS analysis; assay type: functional, cell-based; details: dose 1.0 µmol/L
[26] = system: Tyrosine-protein kinase JAK2 (Homo sapiens), O60674 [V617F]; assay: Inhibition of recombinant human GST-tagged JAK2 JH1 JH2 domains V617F mutant (532-1132 residues) expressed in insect cells at 2 uM using Tyr 06 as substrate measured after 1 hr by Z'-LYTE assay relative to control; details: Insect cell
[27] = system: MDA-MB-361; assay: Induction of apoptosis in human MDA-MB-361 cells assessed as increase in G1 phase at 5 micromol/L incubated for 24 hrs by FACS analysis relative to control; assay type: functional; details: dose 5 µmol/L, at 5 µM

Sequence of Tyrosine-protein kinase JAK2 (Homo sapiens), O60674 [V617F] (O60674 whole entry V617F, the tested form may be a part): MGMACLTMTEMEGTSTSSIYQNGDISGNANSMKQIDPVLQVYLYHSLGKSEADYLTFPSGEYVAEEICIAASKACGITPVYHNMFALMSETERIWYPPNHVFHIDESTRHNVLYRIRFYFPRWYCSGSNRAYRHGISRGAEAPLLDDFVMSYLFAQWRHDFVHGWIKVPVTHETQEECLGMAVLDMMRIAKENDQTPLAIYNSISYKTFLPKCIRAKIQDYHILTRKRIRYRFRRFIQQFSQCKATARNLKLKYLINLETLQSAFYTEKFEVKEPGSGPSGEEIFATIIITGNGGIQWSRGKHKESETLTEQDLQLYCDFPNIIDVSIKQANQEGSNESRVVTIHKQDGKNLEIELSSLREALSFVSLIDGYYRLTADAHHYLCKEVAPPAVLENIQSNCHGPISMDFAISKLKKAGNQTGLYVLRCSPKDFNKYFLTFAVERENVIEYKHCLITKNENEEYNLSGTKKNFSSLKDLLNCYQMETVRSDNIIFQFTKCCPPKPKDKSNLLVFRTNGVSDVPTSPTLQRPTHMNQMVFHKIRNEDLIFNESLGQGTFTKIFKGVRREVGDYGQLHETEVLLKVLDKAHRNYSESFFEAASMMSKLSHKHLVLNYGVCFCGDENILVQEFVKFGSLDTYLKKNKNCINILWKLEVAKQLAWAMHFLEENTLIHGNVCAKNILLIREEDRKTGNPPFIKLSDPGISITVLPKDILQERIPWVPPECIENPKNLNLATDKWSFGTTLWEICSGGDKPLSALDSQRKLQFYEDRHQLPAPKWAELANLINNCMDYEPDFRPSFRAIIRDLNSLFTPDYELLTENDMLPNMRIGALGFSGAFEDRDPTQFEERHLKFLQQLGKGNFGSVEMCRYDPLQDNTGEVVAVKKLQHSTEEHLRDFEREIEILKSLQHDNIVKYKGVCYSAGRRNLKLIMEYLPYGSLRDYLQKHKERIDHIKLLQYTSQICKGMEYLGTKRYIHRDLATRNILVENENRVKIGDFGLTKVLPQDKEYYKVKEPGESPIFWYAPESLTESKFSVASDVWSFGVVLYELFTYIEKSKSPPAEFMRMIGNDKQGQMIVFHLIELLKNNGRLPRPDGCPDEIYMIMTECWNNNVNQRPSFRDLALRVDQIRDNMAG
Sequence of Tyrosine-protein kinase Yes (Homo sapiens) (P07947 2-543 limits assumed): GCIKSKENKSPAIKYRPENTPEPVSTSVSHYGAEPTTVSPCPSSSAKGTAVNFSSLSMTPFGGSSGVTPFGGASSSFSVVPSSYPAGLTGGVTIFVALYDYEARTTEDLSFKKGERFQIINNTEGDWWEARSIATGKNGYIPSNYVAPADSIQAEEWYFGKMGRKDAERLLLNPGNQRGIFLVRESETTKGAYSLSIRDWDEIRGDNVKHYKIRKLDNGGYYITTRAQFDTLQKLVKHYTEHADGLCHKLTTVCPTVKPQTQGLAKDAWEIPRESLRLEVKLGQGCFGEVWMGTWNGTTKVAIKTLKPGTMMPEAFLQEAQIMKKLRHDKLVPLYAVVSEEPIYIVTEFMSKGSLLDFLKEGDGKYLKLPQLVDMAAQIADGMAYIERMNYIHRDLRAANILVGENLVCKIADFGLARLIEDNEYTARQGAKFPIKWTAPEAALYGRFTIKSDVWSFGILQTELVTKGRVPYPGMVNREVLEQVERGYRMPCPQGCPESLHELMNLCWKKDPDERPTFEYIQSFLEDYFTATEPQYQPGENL
Sequence of Casein kinase I isoform delta (Homo sapiens) (P48730 whole entry, looked up, canonical isoform): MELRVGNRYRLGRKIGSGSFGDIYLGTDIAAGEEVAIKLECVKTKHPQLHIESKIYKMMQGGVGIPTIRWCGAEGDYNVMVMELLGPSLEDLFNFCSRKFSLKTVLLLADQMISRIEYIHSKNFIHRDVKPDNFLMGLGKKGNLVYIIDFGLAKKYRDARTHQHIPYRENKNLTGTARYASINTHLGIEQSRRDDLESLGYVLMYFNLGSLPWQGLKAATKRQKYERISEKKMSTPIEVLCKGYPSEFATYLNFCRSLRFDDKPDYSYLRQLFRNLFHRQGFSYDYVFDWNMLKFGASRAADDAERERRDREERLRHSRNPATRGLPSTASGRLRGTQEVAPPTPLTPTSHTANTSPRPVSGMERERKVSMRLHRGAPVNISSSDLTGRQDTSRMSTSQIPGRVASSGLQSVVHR
Sequence of Serine/threonine-protein kinase MARK2 (Homo sapiens) (Q7KZI7 whole entry): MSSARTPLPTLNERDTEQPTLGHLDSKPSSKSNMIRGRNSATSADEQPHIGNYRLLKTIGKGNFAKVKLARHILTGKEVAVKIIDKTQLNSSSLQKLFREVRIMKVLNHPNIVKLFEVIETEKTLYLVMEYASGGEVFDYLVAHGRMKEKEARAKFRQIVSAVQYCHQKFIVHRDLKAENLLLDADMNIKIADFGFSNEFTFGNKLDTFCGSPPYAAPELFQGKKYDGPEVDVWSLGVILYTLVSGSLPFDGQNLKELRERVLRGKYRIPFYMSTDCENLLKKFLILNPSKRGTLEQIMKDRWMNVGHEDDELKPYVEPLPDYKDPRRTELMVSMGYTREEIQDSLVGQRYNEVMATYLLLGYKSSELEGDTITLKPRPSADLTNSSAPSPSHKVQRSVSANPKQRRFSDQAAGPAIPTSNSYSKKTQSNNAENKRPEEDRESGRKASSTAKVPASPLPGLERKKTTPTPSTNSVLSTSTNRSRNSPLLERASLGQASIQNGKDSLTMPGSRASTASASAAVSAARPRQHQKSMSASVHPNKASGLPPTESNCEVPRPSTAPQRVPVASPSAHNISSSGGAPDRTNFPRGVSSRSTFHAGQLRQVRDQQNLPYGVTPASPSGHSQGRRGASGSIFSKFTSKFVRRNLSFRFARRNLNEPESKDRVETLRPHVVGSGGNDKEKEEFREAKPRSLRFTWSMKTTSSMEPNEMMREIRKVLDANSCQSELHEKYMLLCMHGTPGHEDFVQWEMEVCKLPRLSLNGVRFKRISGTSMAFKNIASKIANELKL
Sequence of Tyrosine-protein kinase ABL1 (Homo sapiens) (P00519 whole entry): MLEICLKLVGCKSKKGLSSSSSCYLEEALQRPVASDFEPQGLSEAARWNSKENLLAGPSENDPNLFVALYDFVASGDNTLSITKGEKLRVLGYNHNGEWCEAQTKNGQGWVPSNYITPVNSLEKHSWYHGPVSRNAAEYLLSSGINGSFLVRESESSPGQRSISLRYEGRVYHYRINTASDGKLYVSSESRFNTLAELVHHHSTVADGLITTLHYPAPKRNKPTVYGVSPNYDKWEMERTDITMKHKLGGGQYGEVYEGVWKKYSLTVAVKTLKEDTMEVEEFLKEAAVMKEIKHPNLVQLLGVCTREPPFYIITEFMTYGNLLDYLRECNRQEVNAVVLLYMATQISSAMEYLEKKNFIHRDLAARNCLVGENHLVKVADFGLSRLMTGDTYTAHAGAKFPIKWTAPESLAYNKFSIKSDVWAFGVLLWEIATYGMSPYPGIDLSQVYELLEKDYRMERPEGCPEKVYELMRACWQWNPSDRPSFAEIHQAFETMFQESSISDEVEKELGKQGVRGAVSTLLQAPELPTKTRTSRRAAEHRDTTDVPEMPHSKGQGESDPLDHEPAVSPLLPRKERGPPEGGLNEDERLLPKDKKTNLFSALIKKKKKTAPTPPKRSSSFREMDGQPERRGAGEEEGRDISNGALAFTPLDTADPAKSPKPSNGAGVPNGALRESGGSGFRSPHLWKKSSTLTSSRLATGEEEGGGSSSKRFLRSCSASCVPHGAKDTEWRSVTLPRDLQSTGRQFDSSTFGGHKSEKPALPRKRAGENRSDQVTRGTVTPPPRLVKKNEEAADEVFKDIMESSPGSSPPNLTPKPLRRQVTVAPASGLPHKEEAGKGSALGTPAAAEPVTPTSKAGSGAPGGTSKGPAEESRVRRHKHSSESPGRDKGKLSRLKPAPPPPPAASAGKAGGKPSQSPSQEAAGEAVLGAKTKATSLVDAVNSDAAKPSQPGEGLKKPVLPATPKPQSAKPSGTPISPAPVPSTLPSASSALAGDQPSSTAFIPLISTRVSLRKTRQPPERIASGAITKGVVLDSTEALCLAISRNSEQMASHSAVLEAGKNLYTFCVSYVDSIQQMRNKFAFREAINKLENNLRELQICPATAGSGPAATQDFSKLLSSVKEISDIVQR
Sequence of Mitogen-activated protein kinase 10 (Homo sapiens) (P53779 whole entry): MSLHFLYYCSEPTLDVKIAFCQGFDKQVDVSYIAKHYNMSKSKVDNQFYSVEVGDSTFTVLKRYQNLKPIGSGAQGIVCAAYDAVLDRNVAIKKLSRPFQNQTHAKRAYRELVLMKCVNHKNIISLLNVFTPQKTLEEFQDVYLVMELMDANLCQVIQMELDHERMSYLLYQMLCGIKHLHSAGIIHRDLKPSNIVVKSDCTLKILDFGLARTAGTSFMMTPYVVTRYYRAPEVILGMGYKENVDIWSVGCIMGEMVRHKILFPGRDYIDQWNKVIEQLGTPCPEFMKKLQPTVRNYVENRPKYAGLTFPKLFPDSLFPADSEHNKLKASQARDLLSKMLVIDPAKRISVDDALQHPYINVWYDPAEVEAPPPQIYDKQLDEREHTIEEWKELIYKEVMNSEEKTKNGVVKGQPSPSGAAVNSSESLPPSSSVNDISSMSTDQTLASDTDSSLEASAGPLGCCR
Sequence of Glycogen synthase kinase-3 alpha (Homo sapiens) (P49840 2-483 limits assumed): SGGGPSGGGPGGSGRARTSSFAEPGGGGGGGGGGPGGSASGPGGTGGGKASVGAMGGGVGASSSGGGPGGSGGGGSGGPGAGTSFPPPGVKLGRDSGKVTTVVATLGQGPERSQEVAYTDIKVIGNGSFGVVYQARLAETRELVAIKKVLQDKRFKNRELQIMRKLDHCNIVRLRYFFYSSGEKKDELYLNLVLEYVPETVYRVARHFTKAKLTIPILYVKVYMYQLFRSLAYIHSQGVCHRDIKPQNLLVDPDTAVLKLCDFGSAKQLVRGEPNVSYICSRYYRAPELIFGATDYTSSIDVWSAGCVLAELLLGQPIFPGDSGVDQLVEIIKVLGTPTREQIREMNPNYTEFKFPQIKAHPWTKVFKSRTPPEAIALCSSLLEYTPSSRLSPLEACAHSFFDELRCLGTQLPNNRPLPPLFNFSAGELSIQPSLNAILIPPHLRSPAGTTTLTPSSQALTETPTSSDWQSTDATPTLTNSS

Q: Which results are given for CNC(=O)Nc1ccc(-c2nc(N3CC4CCC(C3)O4)c3cnn(C4CCC5(CC4)OCCO5)c3n2)cc1?
A: inhibition [1]: 2%; inhibition [2]: 12%; IC50 [3]: 110 nM; inhibition [4]: 3%; inhibition [5]: -1%; inhibition at 2 µM [6]: 0%; inhibition [7]: 7%; inhibition [8]: 14%; inhibition at 10 µM [9]: 100%; inhibition [10]: 12%; Activity [11]: Active; inhibition [12]: Active; Activity [13]: Active; inhibition [14]: inactive; inhibition [15]: 2%; inhibition [16]: 3%; inhibition [17]: 4%; Activity [18]: 0.58; inhibition [19]: -1%; inhibition [20]: -2%; inhibition [21]: 11%; IC50 [22]: 1250 nM; Activity [23]: Active; inhibition [24]: 2%; Activity [25]: Active; inhibition [26]: 4%; Activity [27]: 12%
